{
  "source": "patent US20120115905A1",
  "about": "“Nitrone, Nitroso, and Nitroxide Spintraps and Spin Labels and Their Hydroxylamines” (priority 2010, published 2012)",
  "key": {"animal models": {"system": "animal models", "settings": "cited from earlier work"}, "humans": {"system": "humans", "settings": "human clinical trials, even at several grams per day doses; cited from earlier work"}, "[1]": {"system": "premenstrual dysphoric disorder", "test": "Treatment of premenstrual dysphoric disorder", "format": "in vivo, human", "settings": "for premenstrual dysphoric syndrome and its associated comorbid symptoms (summary statement): humans, route and dose not stated", "experimental": "(§1) The reduced form of TEMPOL (TEMPOL-H) or equivalent pharmacologically-active spin label/spintrap is prepared by mixing together 2 grams of TEMPOL or a pharmacologically effective amount of another spin-label or spin trap such as methynitrosopropane, 20 grams of ascorbic acid or other reducing compound in 100 ml of distilled water. The formulation is used as is. The solution is slightly-bitter. The formulation can be administered diluted in a suitable liquid such as juice, tea, or coffee. An equivalent dry form as 10 mg of tempol mixed with 100 mg of acsorbic acid or equivalent reducing substance can be easily prepared in capsule or tablet form.\n(§2) One-half ml of the above solution, comprising 10 mg TEMPOL plus 100 mg ascorbic acid, was administered orally once a day to a 50 kg person with a long history for fibrocystic disease of breast so severe that surgeons had recommended mastectomy. The same person had also been previously-diagnoses with severe trigeminal neuralgia."}, "[2]": {"system": "fibrocystic disease of breast", "test": "Treatment of fibrocystic disease of breast in a patient", "format": "in vivo, human", "experimental": "as §1, §2\n(§3) Long-term relief can be achieved, but the symptoms eventually reappear on cessation of treatment for a few weeks."}, "rectal hemorrhoids": {"system": "rectal hemorrhoids", "test": "Treatment of rectal hemorrhoids", "format": "in vivo, human", "settings": "for rectal hemorrhoids (summary statement): humans, route and dose not stated", "experimental": "Boil until methycellulose dissolves (5-10 minutes)\nAlternative is I million-dalton MW 1% propylcellulose, which dissolves overnight without boiling.\nAdd 5 grams TEMPOL with stirring"}, "post-herpetic neuropathy": {"system": "post-herpetic neuropathy", "test": "Treatment of post-herpetic neuropathy / neuralgia", "format": "in vivo, human", "settings": "for post-herpetic neuralgia (summary statement): humans, route and dose not stated", "experimental": "as §1\nOne-half ml of the above solution was orally-administered daily to a middle-aged person with chronic post-herpetic neuropathy of the feet, peridontitis, and gingivitis."}, "herpes zoster lesions": {"system": "herpes zoster lesions", "test": "Treatment of herpes zoster lesions", "format": "in vivo, human", "settings": "for herpes zoster lesions (summary statement): humans, route and dose not stated"}, "migraine headache": {"system": "migraine headache", "test": "Treatment of migraine headache", "format": "in vivo, human", "settings": "for migraine headache (summary statement): humans, route and dose not stated", "experimental": "as §1, §2"}, "trigeminal neuralgia": {"system": "trigeminal neuralgia", "test": "Treatment of trigeminal neuralgia in a patient", "format": "in vivo, human", "settings": "for trigeminal neuralgia (summary statement): humans, route and dose not stated", "experimental": "as §1, §2, §3"}, "[3]": {"system": "gingivitis and peridontitis", "test": "Treatment of gingivitis and peridontitis", "format": "in vivo, human", "settings": "for peridontitis and gingivitis (summary statement): humans, route and dose not stated"}, "influenza": {"system": "influenza", "test": "Amelioration of influenza symptomology", "format": "in vivo, human", "settings": "for influenza (summary statement): humans, route and dose not stated"}, "rhinositis": {"system": "rhinositis", "test": "Local nasal treatment of rhinositis", "format": "in vivo, human", "settings": "0.1 ml applied locally to the nasal cavity"}, "[4]": {"system": "peripheral vascular disease", "test": "Treatment of peripheral vascular disease", "format": "in vivo, human", "settings": "the above treatment (10 mg TEMPOL plus 100 mg ascorbic acid orally once a day)"}, "cyclic vomiting syndrome": {"system": "cyclic vomiting syndrome", "test": "Treatment of cyclic vomiting syndrome", "format": "in vivo, human", "settings": "the above treatment (10 mg TEMPOL plus 100 mg ascorbic acid orally once a day)"}, "[5]": {"settings": "10 mg TEMPOL plus 100 mg ascorbic acid orally once a day, same patient"}, "[6]": {"settings": "one-half ml of solution orally daily, middle-aged male"}, "[7]": {"settings": "topical application once a day to the affected area"}},
  "note": "“Also recorded” adds a separate entry of the source.",
  "data": [
    {"molecule": "CC(C)(C)[N+]([O-])=Cc1ccc(S(=O)(=O)[O-])cc1S(=O)(=O)[O-].[Na+].[Na+]", "note": "[NXY-059, disulfonyl PBN]", "values": [
      {"measurement": "neuroprotective efficacy in animal models", "setting": "animal models", "value": "effective in animal models"},
      {"measurement": "neuroprotective efficacy in humans", "setting": "humans", "value": "not in humans; also recorded: perpetual failure"}
    ]},
    {"molecule": "CC1(C)CC(O)CC(C)(C)N1[O]", "note": "[TEMPOL, 4-hydroxy-2,2,6,6-tetramethylpiperidin-1-yloxy]", "values": [
      {"measurement": "premenstrual dysphoric syndrome and its associated comorbid symptoms (summary statement)", "setting": "[1]", "value": "ameliorate"},
      {"measurement": "efficacy of Tempol itself (unreduced)", "setting": "[2]; same doses as the reduced formulation", "value": "effective at the same doses"},
      {"measurement": "symptoms of rectal hemorrhoids", "setting": "rectal hemorrhoids; 0.2 ml of 5% solution (methyl cellulose gel) transrectally for one to three days", "value": "ameliorates the symptoms of rectal hemorrhoids, especially pain, swelling, and bleeding"},
      {"measurement": "rectal hemorrhoids (summary statement)", "setting": "rectal hemorrhoids", "value": "ameliorate"},
      {"measurement": "post-herpetic neuralgia (summary statement)", "setting": "post-herpetic neuropathy", "value": "prevent and treat"},
      {"measurement": "herpes zoster lesions (summary statement)", "setting": "herpes zoster lesions", "value": "prevent and treat"},
      {"measurement": "migraine headache (summary statement)", "setting": "migraine headache", "value": "prevent and treat"},
      {"measurement": "trigeminal neuralgia (summary statement)", "setting": "trigeminal neuralgia", "value": "ameliorate"},
      {"measurement": "gingivitis and peridontitis, local intraoral treatment", "setting": "[3]; 0.5 ml of 5% TEMPOL liquid or gel applied to the affected gums for one to three days", "value": "reducing tenderness and bleeding"},
      {"measurement": "peridontitis and gingivitis (summary statement)", "setting": "[3]", "value": "ameliorate"},
      {"measurement": "influenza (summary statement)", "setting": "influenza", "value": "ameliorate"}
    ]},
    {"molecule": "CC1(C)CC(O)CC(C)(C)N1O", "note": "[TEMPOL-H]", "values": [
      {"measurement": "rhinositis", "setting": "rhinositis", "value": "ameliorates rhinositis"},
      {"measurement": "symptoms of anxiety/depression and mood swings outside the premenstrual time period", "setting": "[1]; [5]", "value": "Efficacy was observed"},
      {"measurement": "symptoms of premenstrual dysphoric disorder including comorbidity", "setting": "[1]; [5]", "value": "alleviates and prevents"},
      {"measurement": "premenstrual dysphoric syndrome and its associated comorbid symptoms (summary statement)", "setting": "[1]", "value": "ameliorate"},
      {"measurement": "time until first results appeared", "setting": "[2]; 10 mg TEMPOL plus 100 mg ascorbic acid orally once a day, one patient", "value": "1-2 weeks"},
      {"measurement": "regression / shrinkage of the breast cysts", "setting": "[2]; 10 mg TEMPOL plus 100 mg ascorbic acid orally once a day, one patient, mammographic imaging and digital palpation", "value": "almost complete regression; also recorded: shrinkage of the breast cysts"},
      {"measurement": "breast cysts upon resumption of treatment", "setting": "[2]; resumption after cessation of treatment for a few weeks, same oral dose", "value": "again drastically shrink"},
      {"measurement": "rectal hemorrhoids (summary statement)", "setting": "rectal hemorrhoids", "value": "ameliorate"},
      {"measurement": "post-herpetic neuralgia (summary statement)", "setting": "post-herpetic neuropathy", "value": "prevent and treat"},
      {"measurement": "symptomatic relief of chronic post-herpetic neuropathy of the feet", "setting": "post-herpetic neuropathy; [6]", "value": "Symptomatic relief of all of these was experienced within one week"},
      {"measurement": "post-herpetic neuralgia, topical application", "setting": "post-herpetic neuropathy; [7]", "value": "also effective"},
      {"measurement": "herpes zoster lesions (summary statement)", "setting": "herpes zoster lesions", "value": "prevent and treat"},
      {"measurement": "herpes zoster lesions, topical application", "setting": "herpes zoster lesions; [7]", "value": "also effective"},
      {"measurement": "migraine headache (summary statement)", "setting": "migraine headache", "value": "prevent and treat"},
      {"measurement": "migraine headache prevention and symptoms", "setting": "migraine headache; the above treatment (10 mg TEMPOL plus 100 mg ascorbic acid orally once a day)", "value": "both prevents migraine headache and ameliorates the symptoms"},
      {"measurement": "peripheral vascular disease", "setting": "[4]", "value": "controls, and ameliorates"},
      {"measurement": "cyclic vomiting syndrome", "setting": "cyclic vomiting syndrome", "value": "prevents, controls, and ameliorates"},
      {"measurement": "effect on long-standing trigeminal neuralgia", "setting": "trigeminal neuralgia; [5]", "value": "alleviated and prevented"},
      {"measurement": "trigeminal neuralgia (summary statement)", "setting": "trigeminal neuralgia", "value": "ameliorate"},
      {"measurement": "peridontitis and gingivitis (summary statement)", "setting": "[3]", "value": "ameliorate"},
      {"measurement": "symptomatic relief of peridontitis and gingivitis", "setting": "[3]; [6]", "value": "Symptomatic relief of all of these was experienced within one week"},
      {"measurement": "gingivitis and peridontitis, topical application", "setting": "[3]; topical application of the reduced TEMPOL solution", "value": "also effective"},
      {"measurement": "influenza (summary statement)", "setting": "influenza", "value": "ameliorate"},
      {"measurement": "symptoms of influenza", "setting": "influenza; one-half ml orally once or twice daily", "value": "significantly-ameliorates"}
    ]}
  ]
}
